US9265276B2, “Reducing astringency in compositions containing phenolic compounds” (Nestec S.A., priority 2008, dated 2016)
Values belong to the compound of their own block, whether it stands above or below them.

How the values were obtained:
[1] = Stability of green tea catechins during storage at room temperature (HPLC); assay type: physicochemical; settings: for catechins (% recovered): room temperature, pH 6.0
Procedure: Soya lecithin was dispersed in distilled water to yield different concentrations (0.05%; 0.1% and 0.2%) by stirring the mixes at 37° C. for 2 h. Phosphate buffer was added to each sample to give a final concentration of 20 mM at pH 6.0 before they were pre-homogenized with an Ultraturrax at full speed. The dispersions were flushed with nitrogen for 5 minutes and then green tea extract was added for a final concentration of 0.2%. After gentle stirring for 15 min the mixes were finally homogenized with a Microfluidizer processor (Microfluidics, Newton, Mass., USA) with 1 run at 250 bar. The same protocol was followed for preparing the green tea control except that no lecithin was added. The homogenized dispersions were filled into 1 lt glass bottles and were sterilized (30 sec at 80° C.) in a water bath heated with steam.
The sterilized samples were stored at room temperature up to 25 days. No microbiological contamination with mesophilic germs or Enterobacteriaceae was detected throughout the storage test.
Green tea catechins were analysed in the fresh and stored samples by HPLC on a C-18 column, using UV detection at 280 nm. For total catechin determination samples were treated with concentrated acetic acid and the extracts were stabilised with ascorbic acid, EDTA and acetonitrile. For free catechin determination each sample was previously spun at 14,000×g for 30 min using an Eppendorf (Dr Vaudaux A G, Binningen, C H) centrifuge 5415. The resulting supernatant was then treated as previously described. Stability and binding to phospholipids were calculated for (−)-epigallocatechin (Egc), (−)-epigallocatechin-3-gallate (Egcg), and caffeine.

[2] = Free and bound catechins: binding to lecithin (centrifugation, HPLC); settings: for binding to the lecithin (in words): green tea samples with lecithin 0.05, 0.1, 0.15%
Procedure: Phosphate buffer was added to each sample to give a final concentration of 20 mM at pH 6.0 before they were pre-homogenized with an Ultraturrax at full speed. The dispersions were flushed with nitrogen for 5 minutes and then green tea extract was added for a final concentration of 0.2%. After gentle stirring for 15 min the mixes were finally homogenized with a Microfluidizer processor (Microfluidics, Newton, Mass., USA) with 1 run at 250 bar. […] The homogenized dispersions were filled into 1 lt glass bottles and were sterilized (30 sec at 80° C.) in a water bath heated with steam. Green tea catechins were analysed in the fresh and stored samples by HPLC on a C-18 column, using UV detection at 280 nm. For total catechin determination samples were treated with concentrated acetic acid and the extracts were stabilised with ascorbic acid, EDTA and acetonitrile. For free catechin determination each sample was previously spun at 14,000×g for 30 min using an Eppendorf (Dr Vaudaux A G, Binningen, C H) centrifuge 5415. The resulting supernatant was then treated as previously described. Stability and binding to phospholipids were calculated for (-)-epigallocatechin (Egc), (-)-epigallocatechin-3-gallate (Egcg), and caffeine.

[3] = green tea 0.2% + lecithin 0.05%, storage 0 d
[4] = green tea 0.2% + lecithin 0.05%, storage 2 d
[5] = green tea 0.2% + lecithin 0.05%, storage 9 d
[6] = green tea 0.2% + lecithin 0.05%, storage 13 d
[7] = green tea 0.2% + lecithin 0.05%, storage 22 d
[8] = green tea 0.2% + lecithin 0.1%, storage 0 d
[9] = green tea 0.2% + lecithin 0.1%, storage 2 d
[10] = green tea 0.2% + lecithin 0.1%, storage 9 d
[11] = green tea 0.2% + lecithin 0.1%, storage 13 d
[12] = green tea 0.2% + lecithin 0.1%, storage 22 d
[13] = green tea 0.2% + lecithin 0.2%, storage 0 d
[14] = green tea 0.2% + lecithin 0.2%, storage 2 d
[15] = green tea 0.2% + lecithin 0.2%, storage 9 d
[16] = green tea 0.2% + lecithin 0.2%, storage 13 d
[17] = green tea 0.2% + lecithin 0.2%, storage 22 d

catechins (% recovered) [1, 3]: 100% | catechins (% recovered) [1, 4]: 92% | catechins (% recovered) [1, 5]: 72% | catechins (% recovered) [1, 6]: 59% | catechins (% recovered) [1, 7]: 42% | catechins (% recovered) [1, 8]: 100% | catechins (% recovered) [1, 9]: 94% | catechins (% recovered) [1, 10]: 70% | catechins (% recovered) [1, 11]: 57% | catechins (% recovered) [1, 12]: 39% | catechins (% recovered) [1, 13]: 100% | catechins (% recovered) [1, 14]: 91% | catechins (% recovered) [1, 15]: 64% | catechins (% recovered) [1, 16]: 49% | catechins (% recovered) [1, 17]: 30% | catechins (% recovered) ([1]; green tea 0.2%, storage 0 d): 100% | catechins (% recovered) ([1]; green tea 0.2%, storage 2 d): 93% | catechins (% recovered) ([1]; green tea 0.2%, storage 9 d): 65% | catechins (% recovered) ([1]; green tea 0.2%, storage 13 d): 50% | catechins (% recovered) ([1]; green tea 0.2%, storage 22 d): 28% | bound catechins (% recovered in pellet) [2, 3]: 1% | bound catechins (% recovered in pellet) [2, 4]: 3% | bound catechins (% recovered in pellet) [2, 5]: 1% | bound catechins (% recovered in pellet) [2, 6]: 1% | bound catechins (% recovered in pellet) [2, 7]: 0% | bound catechins (% recovered in pellet) [2, 8]: 2% | bound catechins (% recovered in pellet) [2, 9]: 4% | bound catechins (% recovered in pellet) [2, 10]: 2% | bound catechins (% recovered in pellet) [2, 11]: 2% | bound catechins (% recovered in pellet) [2, 12]: 2% | bound catechins (% recovered in pellet) [2, 13]: 5% | bound catechins (% recovered in pellet) [2, 14]: 6% | bound catechins (% recovered in pellet) [2, 15]: 5% | bound catechins (% recovered in pellet) [2, 16]: 5% | bound catechins (% recovered in pellet) [2, 17]: 6% | bound catechins (% recovered in pellet) ([2]; green tea 0.2%, storage 0 d): 3% | bound catechins (% recovered in pellet) ([2]; green tea 0.2%, storage 2 d): 0% | bound catechins (% recovered in pellet) ([2]; green tea 0.2%, storage 9 d): 0% | bound catechins (% recovered in pellet) ([2]; green tea 0.2%, storage 13 d): 0% | bound catechins (% recovered in pellet) ([2]; green tea 0.2%, storage 22 d): 0%
Structure (SMILES): Oc1cc(O)c2c(c1)O[C@H](c1cc(O)c(O)c(O)c1)[C@H](O)C2 [Egc, (−)-epigallocatechin]

catechins (% recovered) [1, 3]: 100% | catechins (% recovered) [1, 4]: 95% | catechins (% recovered) [1, 5]: 78% | catechins (% recovered) [1, 6]: 68% | catechins (% recovered) [1, 7]: 55% | catechins (% recovered) [1, 8]: 100% | catechins (% recovered) [1, 9]: 98% | catechins (% recovered) [1, 10]: 82% | catechins (% recovered) [1, 11]: 74% | catechins (% recovered) [1, 12]: 62% | catechins (% recovered) [1, 13]: 100% | catechins (% recovered) [1, 14]: 99% | catechins (% recovered) [1, 15]: 88% | catechins (% recovered) [1, 16]: 82% | catechins (% recovered) [1, 17]: 71% | catechins (% recovered) ([1]; green tea 0.2%, storage 0 d): 100% | catechins (% recovered) ([1]; green tea 0.2%, storage 2 d): 94% | catechins (% recovered) ([1]; green tea 0.2%, storage 9 d): 67% | catechins (% recovered) ([1]; green tea 0.2%, storage 13 d): 53% | catechins (% recovered) ([1]; green tea 0.2%, storage 22 d): 33% | stabilisation by lecithin during storage (in words) ([1]; storage of the green tea samples): dose-dependent stabilisation | bound catechins (% recovered in pellet) [2, 3]: 18% | bound catechins (% recovered in pellet) [2, 4]: 17% | bound catechins (% recovered in pellet) [2, 5]: 21% | bound catechins (% recovered in pellet) [2, 6]: 22% | bound catechins (% recovered in pellet) [2, 7]: 22% | bound catechins (% recovered in pellet) [2, 8]: 33% | bound catechins (% recovered in pellet) [2, 9]: 30% | bound catechins (% recovered in pellet) [2, 10]: 37% | bound catechins (% recovered in pellet) [2, 11]: 38% | bound catechins (% recovered in pellet) [2, 12]: 39% | bound catechins (% recovered in pellet) [2, 13]: 46% | bound catechins (% recovered in pellet) [2, 14]: 45% | bound catechins (% recovered in pellet) [2, 15]: 53% | bound catechins (% recovered in pellet) [2, 16]: 55% | bound catechins (% recovered in pellet) [2, 17]: 59% | bound catechins (% recovered in pellet) ([2]; green tea 0.2%, storage 0 d): 1% | bound catechins (% recovered in pellet) ([2]; green tea 0.2%, storage 2 d): 1% | bound catechins (% recovered in pellet) ([2]; green tea 0.2%, storage 9 d): 1% | bound catechins (% recovered in pellet) ([2]; green tea 0.2%, storage 13 d): 2% | bound catechins (% recovered in pellet) ([2]; green tea 0.2%, storage 22 d): 2% | binding to the lecithin (in words) [2]: interact with the added lecithin
Structure (SMILES): O=C(O[C@@H]1Cc2c(O)cc(O)cc2O[C@@H]1c1cc(O)c(O)c(O)c1)c1cc(O)c(O)c(O)c1 [Egcg, (−)-epigallocatechin-3-gallate]
percentage of bound Egcg during storage (in words) ([2]; lecithin containing green tea samples during storage): not only remained constant but rather slightly increased with time

binding to the lecithin (in words) [2]: interact with the added lecithin
Structure (SMILES): O=C(O[C@@H]1Cc2c(O)cc(O)cc2O[C@@H]1c1ccc(O)c(O)c1)c1cc(O)c(O)c(O)c1 [Ecg, epicatechin gallate]

Structure (SMILES): Cn1c(=O)c2c(ncn2C)n(C)c1=O [caffeine]
stability during storage (in words) [1]: quite stable under the chosen storage conditions
